Laboratory results: US11051538B2, “Plated flavor powders” (FIRMENICH SA, priority 2013, dated 2021)

Assay: Transfer of volatiles via headspace from MCT flavor composition to PG plated onto MCC, cyclohexane extraction, GC/MS
Assay type: physicochemical
Details: for (conc in PG/conc in initial oil)*100: affinity for propylene glycol versus MCT oil or air; for (conc in PG/conc in initial oil)*100 / Avg conc in the PG: 6 days room temperature; for Avg conc in the PG / Avg conc in powder: powder 20% PG on 80% MCC; for Avg conc in powder: 6 days room temperature in closed container with MCT flavor composition, average of 2 extractions
Protocol: A flavor composition formulated based on a medium chain triglyceride oil (MCT, solvent A) was filled into a open beaker, and was then placed inside a closed glass container containing a powder consisting of 20% propylene glycol (PG, solvent B) plated onto 80% of microcrystalline cellulose (MCC; purchased from Sigma Aldrich). Then the system was stored in the lab at room temperature. After 6 days, a small sample of powder was removed, an extraction experiment was performed and the extract was analyzed by GC/MS. Extraction solvent: cyclohexane Internal standard: Methyloctanoate (a 6.67 mg/ml solution was prepared by dissolution in cyclohexane) 2 extractions were performed to check the reproducibility.

| (conc in PG/conc in initial oil)*100 | Avg conc in the PG | Avg conc in powder | Molecule |
| --- | --- | --- | --- |
| 3.9 | 156.9 ppm | 39 ppm | CC(=O)C(C)O (stereo not drawn) [acetylmethylcarbinol] |
| 9.1 | 1091.5 ppm | 273 ppm | CC(C)CC=O [isovalerianic aldehyde] |
| 1.9 | 467.4 ppm | 117 ppm | Dienal C10 |
| 0.5 | 40.4 ppm | 10 ppm | Dienal C11 |

Second part, the molecule before the results:

| Molecule | (conc in PG/conc in initial oil)*100 | Avg conc in the PG | Avg conc in powder |
| --- | --- | --- | --- |
| CCc1ncc(C)nc1C [2-ethyl-3,5-dimethylpirazine] | 12.7 | 25.4 ppm | 6 ppm |
| CCc1nccnc1C [2-ethyl-3-methylpyrazine] | 39.9 | 799.0 ppm | 200 ppm |
| CCC(C)C=O (stereo not drawn) [2-methyl butanal] | 6.7 | 1615.4 ppm | 404 ppm |
| CSCCC=O [3-(methylthio)propanal] | 2.8 | 113.5 ppm | 28 ppm |
| Decenal | 0.3 | 37.8 ppm | 9 ppm |
